Measurements as given in patent US12643871B2, “Aryl formamide compound containing chiral sulfur oxide or salt thereof, preparation method, herbicidal composition and use thereof” (Qingdao Kingagroot Chemical Compound Co., Ltd., priority 2019, dated 2026).

Experiments:
Assay in all cases: Weeding effect in post-emergence stage
Format in all cases: in vivo
Conditions in all cases: 250 g/ha; 2 leaf stage; 15 days after application; fresh weight control rate
Echinochloa crusgali = tested on: Echinochloa crusgali
Procedure, shortened: (§1)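 Pot-grown weeds sprayed post-emergence at the 2-leaf stage, 2 weeks after sowing, with compound in acetone/Tween 80 plus 1.5 L/ha methyl oleate concentrate at 500–15 g/ha. Fresh-weight growth control scored after 15 days in greenhouse, mean of three replicates, graded levels 0–5 (5: >85%, 0: <5%).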

Amaranthus retroflexus = tested on: Amaranthus retroflexus
Procedure, shortened: as §1

Digitaria sanguinalis = tested on: Digitaria sanguinalis
Procedure, shortened: as §1

SMILES | weeding effect in post-emergence stage, activity level (growth control rate), Echinochloa crusgali (Echinochloa crusgali) | weeding effect in post-emergence stage, activity level (growth control rate), Amaranthus retroflexus (Amaranthus retroflexus) | weeding effect in post-emergence stage, activity level (growth control rate), Digitaria sanguinalis (Digitaria sanguinalis)
CSCCC[S@@+]([O-])c1c(C(F)(F)F)ccc(C(=O)Nc2nnc(C)o2)c1SC [Compound 599] | 5 (Level 5: growth control rate is above 85%) | 5 (Level 5: growth control rate is above 85%) | 5 (Level 5: growth control rate is above 85%)
CCC[S@@+]([O-])c1c(C(F)(F)F)ccc(C(=O)Nc2ncn[nH]2)c1F [Compound 600] | 5 (Level 5: growth control rate is above 85%) | 5 (Level 5: growth control rate is above 85%) | 5 (Level 5: growth control rate is above 85%)
Cc1c(C(=O)Nc2nnnn2C)ccc(S(C)(=O)=O)c1[S@+]([O-])CCCC(F)(F)F [Compound 601] | 5 (Level 5: growth control rate is above 85%) | 5 (Level 5: growth control rate is above 85%) | 5 (Level 5: growth control rate is above 85%)
Cc1nnc(NC(=O)c2ccc(S(C)(=O)=O)c([S@+]([O-])CCC(C)(C)C)c2C)o1 [Compound 602] | 5 (Level 5: growth control rate is above 85%) | 5 (Level 5: growth control rate is above 85%) | 5 (Level 5: growth control rate is above 85%)
Cc1c(C(=O)Nc2nnnn2C)ccc(S(C)(=O)=O)c1[S@+]([O-])CCC(C)(C)C [Compound 603] | 5 (Level 5: growth control rate is above 85%) | 5 (Level 5: growth control rate is above 85%) | 5 (Level 5: growth control rate is above 85%)
Cc1nnc(NC(=O)c2ccc(S(C)(=O)=O)c([S@+]([O-])CC(=O)N(C)C)c2C)o1 [Compound 604] | 5 (Level 5: growth control rate is above 85%) | 5 (Level 5: growth control rate is above 85%) | 5 (Level 5: growth control rate is above 85%)
Cc1c(C(=O)Nc2nnnn2C)ccc(S(C)(=O)=O)c1[S+]([O-])COC(=O)C(C)(C)C (stereo not drawn) [Compound 605] | 5 (Level 5: growth control rate is above 85%) | 5 (Level 5: growth control rate is above 85%) | 5 (Level 5: growth control rate is above 85%)
Cc1c(C(=O)Nc2nnnn2C)ccc(S(C)(=O)=O)c1[S@+]([O-])CC(=O)N(C)C [Compound 606] | 5 (Level 5: growth control rate is above 85%) | 5 (Level 5: growth control rate is above 85%) | 5 (Level 5: growth control rate is above 85%)
Cc1c(C(=O)Nc2nnnn2C)ccc(S(C)(=O)=O)c1[S@+]([O-])CCO [Compound 607] | 5 (Level 5: growth control rate is above 85%) | 5 (Level 5: growth control rate is above 85%) | 5 (Level 5: growth control rate is above 85%)
Cc1c(C(=O)Nc2nnnn2C)ccc(S(C)(=O)=O)c1[S@+]([O-])CCC#N [Compound 608] | 5 (Level 5: growth control rate is above 85%) | 5 (Level 5: growth control rate is above 85%) | 5 (Level 5: growth control rate is above 85%)
CC(=O)C[S@@+]([O-])c1c(S(C)(=O)=O)ccc(C(=O)Nc2nnnn2C)c1C [Compound 609] | 5 (Level 5: growth control rate is above 85%) | 5 (Level 5: growth control rate is above 85%) | 5 (Level 5: growth control rate is above 85%)
Cc1nnc(NC(=O)c2ccc(S(C)(=O)=O)c([S@+]([O-])CCC#N)c2C)o1 [Compound 610] | 5 (Level 5: growth control rate is above 85%) | 5 (Level 5: growth control rate is above 85%) | 5 (Level 5: growth control rate is above 85%)
CC(=O)C[S@@+]([O-])c1c(S(C)(=O)=O)ccc(C(=O)Nc2nnc(C)o2)c1C [Compound 611] | 5 (Level 5: growth control rate is above 85%) | 5 (Level 5: growth control rate is above 85%) | 5 (Level 5: growth control rate is above 85%)
CCOCCn1nnnc1NC(=O)c1ccc(S(C)(=O)=O)c([S@+]([O-])CC)c1C [Compound 612] | 5 (Level 5: growth control rate is above 85%) | 5 (Level 5: growth control rate is above 85%) | 5 (Level 5: growth control rate is above 85%)
C=CCC[S@@+]([O-])c1c(S(C)(=O)=O)ccc(C(=O)Nc2nnnn2C)c1C [Compound 619] | 5 (Level 5: growth control rate is above 85%) | 5 (Level 5: growth control rate is above 85%) | 5 (Level 5: growth control rate is above 85%)
Cc1c(C(=O)Nc2nnnn2C)ccc(S(C)(=O)=O)c1[S@+]([O-])CC(C)O (stereo partly drawn) [Compound 620] | 5 (Level 5: growth control rate is above 85%) | 5 (Level 5: growth control rate is above 85%) | 5 (Level 5: growth control rate is above 85%)
Cc1nnc(NC(=O)c2ccc(Cl)c([S@@+](C)[O-])c2Cl)o1 [Compound 621] | 5 (Level 5: growth control rate is above 85%) | 5 (Level 5: growth control rate is above 85%) | 5 (Level 5: growth control rate is above 85%)
CC[S@@+]([O-])c1c(S(C)(=O)=O)ccc(C(=O)Nc2nnnn2CCOC)c1C [Compound 622] | 5 (Level 5: growth control rate is above 85%) | 5 (Level 5: growth control rate is above 85%) | 5 (Level 5: growth control rate is above 85%)
Cc1nnc(NC(=O)c2ccc(F)c([S@@+](C)[O-])c2F)o1 [Compound 623] | 5 (Level 5: growth control rate is above 85%) | 5 (Level 5: growth control rate is above 85%) | 5 (Level 5: growth control rate is above 85%)
C#CCC[S@@+]([O-])c1c(S(C)(=O)=O)ccc(C(=O)Nc2nnc(C)o2)c1C [Compound 624] | 5 (Level 5: growth control rate is above 85%) | 5 (Level 5: growth control rate is above 85%) | 5 (Level 5: growth control rate is above 85%)
Cc1nnc(NC(=O)c2ccc(S(C)(=O)=O)c([S@+]([O-])CCS(C)(=O)=O)c2C)o1 [Compound 625] | 5 (Level 5: growth control rate is above 85%) | 5 (Level 5: growth control rate is above 85%) | 5 (Level 5: growth control rate is above 85%)
Cc1c(C(=O)Nc2nnnn2C)ccc(S(C)(=O)=O)c1[S+]([O-])CC1CCC1 (stereo not drawn) [Compound 626] | 5 (Level 5: growth control rate is above 85%) | 5 (Level 5: growth control rate is above 85%) | 5 (Level 5: growth control rate is above 85%)
Cc1nnc(NC(=O)c2ccc(S(C)(=O)=O)c([S@+]([O-])CCC(F)=C(F)F)c2C)o1 [Compound 627] | 5 (Level 5: growth control rate is above 85%) | 5 (Level 5: growth control rate is above 85%) | 5 (Level 5: growth control rate is above 85%)
Cc1nnc(NC(=O)c2ccc(S(C)(=O)=O)c([S@+]([O-])CCCO)c2C)o1 [Compound 628] | 5 (Level 5: growth control rate is above 85%) | 5 (Level 5: growth control rate is above 85%) | 5 (Level 5: growth control rate is above 85%)
